Measured values reported in publication PMC11649380 (Inorganic chemistry, 2022).
Like-named read-outs stand apart in the source and are kept apart here.

Experiments:
[1] = Aquation kinetics of axial ligand dissociation by 1H NMR spectroscopy; format: physicochemical; settings: for k1 × 10^5 (first aquation rate constant) / k2 × 10^4 (second aquation rate constant): 37 °C, pH 7.4 MOPS-buffered solution, 400 μM complex, 1H NMR; for half-life: mops buffer, pH 7.4
[2] = test system: HeLa cells; assay: Cellular uptake by GFAAS in HeLa cells; format: cell-based; settings: 50 μM for 2 h
[3] = target: T1, mitochondrial calcium uniporter (MCU) (Homo sapiens, UniProt Q8NE86); assay: Mitochondrial Ca2+ uptake inhibition in digitonin-permeabilized HEK293T cells; format: cell-based
T1 sequence (Q8NE86 51-351): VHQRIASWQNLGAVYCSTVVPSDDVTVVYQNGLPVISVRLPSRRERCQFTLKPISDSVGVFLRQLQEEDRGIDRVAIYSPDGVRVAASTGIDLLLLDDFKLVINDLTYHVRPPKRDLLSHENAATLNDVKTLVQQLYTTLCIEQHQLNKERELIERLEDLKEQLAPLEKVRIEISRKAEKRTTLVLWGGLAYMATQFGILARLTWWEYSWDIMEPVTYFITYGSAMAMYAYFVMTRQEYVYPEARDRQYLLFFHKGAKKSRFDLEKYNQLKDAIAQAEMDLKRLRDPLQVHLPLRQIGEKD
T1 sequence (Q9H4I9 48-107 partner limits assumed): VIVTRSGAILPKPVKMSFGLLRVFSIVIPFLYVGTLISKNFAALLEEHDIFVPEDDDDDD

[4] = target: T2, organic cation transporter 3 (OCT3) (Homo sapiens, UniProt O75751); assay: Role of OCT3 in cellular uptake; format: cell-based; settings: HeLa, 50 μM complex, 1 μM decynium-22, 3 h
T2 sequence (O75751 1-556): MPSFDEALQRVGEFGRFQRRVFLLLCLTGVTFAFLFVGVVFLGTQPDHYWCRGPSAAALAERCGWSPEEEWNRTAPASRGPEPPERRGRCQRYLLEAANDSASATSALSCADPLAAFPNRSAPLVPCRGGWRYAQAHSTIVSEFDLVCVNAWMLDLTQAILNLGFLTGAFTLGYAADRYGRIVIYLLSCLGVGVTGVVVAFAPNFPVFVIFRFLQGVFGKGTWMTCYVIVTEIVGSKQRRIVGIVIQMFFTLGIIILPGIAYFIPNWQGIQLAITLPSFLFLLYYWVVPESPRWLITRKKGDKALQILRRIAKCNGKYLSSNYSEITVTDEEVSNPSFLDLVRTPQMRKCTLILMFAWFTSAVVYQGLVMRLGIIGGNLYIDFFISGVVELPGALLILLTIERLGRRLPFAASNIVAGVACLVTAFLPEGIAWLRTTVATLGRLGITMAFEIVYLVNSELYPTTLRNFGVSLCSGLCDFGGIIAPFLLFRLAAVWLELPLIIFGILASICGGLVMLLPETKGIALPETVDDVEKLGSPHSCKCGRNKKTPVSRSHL

[5] = ref [51], cited from earlier work
[6] = test system: HEK293T cells; assay: Cellular uptake by GFAAS in HEK293T cells; format: cell-based; settings: 50 μM for 2 h
[7] = target: T1, mitochondrial calcium uniporter (MCU); settings: read-out: IC50 of MCU-mediated mCa2+ uptake inhibition; permeabilized HEK293T cells (1 × 10^7 cells/mL); ref [46]; cited from earlier work

| Structure (SMILES) | k1 × 10^5 (first aquation rate constant) [1] [s^−1] | k2 × 10^4 (second aquation rate constant) [1] [s^−1] | half-life [1] [h] | also measured |
| --- | --- | --- | --- | --- |
| N.N.N.N.N.N.N.N.O=C[O-].O=C[O-].[N-3].[Ru+4].[Ru+4] [Complex 1, [(HCO2)Ru(NH3)4(μ-N)Ru(NH3)4(O2CH)](NO3)3] | 5.9 ± 0.2 | 3.6 ± 0.3 | 3.3 ± 0.1 |  |
| N.N.N.N.N.N.N.N.[Cl][Ru+3].[N-]=[Ru][Cl] [Ru265, [ClRu(NH3)4(μ-N)Ru(NH3)4Cl]Cl3] |  |  |  | cellular uptake (intracellular Ru accumulation) [2]: taken up by both cell lines to a similar extent; mCa2+ uptake at 1 μM ([3]; freshly prepared 1 μM solutions, permeabilized HEK293T cells): complete abrogation of mCa^2+ uptake; cellular uptake in the presence of the OCT3 inhibitor decynium-22 [4]: diminished in the presence of the OCT3 inhibitor; t1/2 (1) (half-life of first aquation step) ([5]; 37 °C, UV-vis spectroscopy): 2.28 min; k1 × 10^5 (first aquation rate constant) ([5]; 37 °C, determined using UV-vis spectroscopy, first aquation step only): 49.2 s^−1; half-life of aquation of axial chloride ligands ([5]; same conditions (pH 7.4, 37 °C)): approximately 2 min; cellular uptake (intracellular Ru accumulation) [6]: taken up by both cell lines to a similar extent |
| CC(=O)[O-].CC(=O)[O-].N.N.N.N.N.N.N.N.[N-3].[Ru+4].[Ru+4] [Complex 2, [(CH3CO2)Ru(NH3)4(μ-N)Ru(NH3)4(O2CCH3)](NO3)3] | 2.0 ± 0.5 | 3.0 ± 1.2 | 9.9 ± 2.4 |  |
| CCCC(=O)[O-].CCCC(=O)[O-].N.N.N.N.N.N.N.N.[N-3].[Ru+4].[Ru+4] [Complex 4, [(CH3(CH2)2CO2)Ru(NH3)4(μ-N)Ru(NH3)4(O2C(CH2)2CH3)](OSO2CF3)3] | 3.2 ± 0.1 | 2.8 ± 0.2 | 5.9 ± 0.2 | IC50 [3]: 18.7 ± 0.1 nM |
| CCC(=O)[O-].CCC(=O)[O-].N.N.N.N.N.N.N.N.[N-3].[Ru+4].[Ru+4] [Complex 3, [(CH3CH2CO2)Ru(NH3)4(μ-N)Ru(NH3)4(O2CCH2CH3)](NO3)3] | 2.8 ± 0.1 | 3.3 ± 0.5 | 6.9 ± 0.2 |  |
| N.N.N.N.N.N.N.N.[Cl][Ru+3].[NH]=[Ru][Cl] [Ru265, [ClRu(NH3)4(μ-N)Ru(NH3)4Cl]Cl3] |  |  |  | IC50 [7]: 8.6 ± 2.2 nM |
